According to PubChem BioAssay AID367 (MTDP, 2006):
Active and inactive are the calls of the source. The rule behind the calls is not given here.

target: Gag-Pol polyprotein (Human immunodeficiency virus type 2 subtype A (isolate ROD)) (UniProt P04584); assay: Reverse transcriptase ribonuclease H inhibitors, biochemical concentration-response (AID 367); settings: HIV-2 RNase H, FRET RNA/DNA substrate cleavage
Sequence (P04584 whole entry, looked up): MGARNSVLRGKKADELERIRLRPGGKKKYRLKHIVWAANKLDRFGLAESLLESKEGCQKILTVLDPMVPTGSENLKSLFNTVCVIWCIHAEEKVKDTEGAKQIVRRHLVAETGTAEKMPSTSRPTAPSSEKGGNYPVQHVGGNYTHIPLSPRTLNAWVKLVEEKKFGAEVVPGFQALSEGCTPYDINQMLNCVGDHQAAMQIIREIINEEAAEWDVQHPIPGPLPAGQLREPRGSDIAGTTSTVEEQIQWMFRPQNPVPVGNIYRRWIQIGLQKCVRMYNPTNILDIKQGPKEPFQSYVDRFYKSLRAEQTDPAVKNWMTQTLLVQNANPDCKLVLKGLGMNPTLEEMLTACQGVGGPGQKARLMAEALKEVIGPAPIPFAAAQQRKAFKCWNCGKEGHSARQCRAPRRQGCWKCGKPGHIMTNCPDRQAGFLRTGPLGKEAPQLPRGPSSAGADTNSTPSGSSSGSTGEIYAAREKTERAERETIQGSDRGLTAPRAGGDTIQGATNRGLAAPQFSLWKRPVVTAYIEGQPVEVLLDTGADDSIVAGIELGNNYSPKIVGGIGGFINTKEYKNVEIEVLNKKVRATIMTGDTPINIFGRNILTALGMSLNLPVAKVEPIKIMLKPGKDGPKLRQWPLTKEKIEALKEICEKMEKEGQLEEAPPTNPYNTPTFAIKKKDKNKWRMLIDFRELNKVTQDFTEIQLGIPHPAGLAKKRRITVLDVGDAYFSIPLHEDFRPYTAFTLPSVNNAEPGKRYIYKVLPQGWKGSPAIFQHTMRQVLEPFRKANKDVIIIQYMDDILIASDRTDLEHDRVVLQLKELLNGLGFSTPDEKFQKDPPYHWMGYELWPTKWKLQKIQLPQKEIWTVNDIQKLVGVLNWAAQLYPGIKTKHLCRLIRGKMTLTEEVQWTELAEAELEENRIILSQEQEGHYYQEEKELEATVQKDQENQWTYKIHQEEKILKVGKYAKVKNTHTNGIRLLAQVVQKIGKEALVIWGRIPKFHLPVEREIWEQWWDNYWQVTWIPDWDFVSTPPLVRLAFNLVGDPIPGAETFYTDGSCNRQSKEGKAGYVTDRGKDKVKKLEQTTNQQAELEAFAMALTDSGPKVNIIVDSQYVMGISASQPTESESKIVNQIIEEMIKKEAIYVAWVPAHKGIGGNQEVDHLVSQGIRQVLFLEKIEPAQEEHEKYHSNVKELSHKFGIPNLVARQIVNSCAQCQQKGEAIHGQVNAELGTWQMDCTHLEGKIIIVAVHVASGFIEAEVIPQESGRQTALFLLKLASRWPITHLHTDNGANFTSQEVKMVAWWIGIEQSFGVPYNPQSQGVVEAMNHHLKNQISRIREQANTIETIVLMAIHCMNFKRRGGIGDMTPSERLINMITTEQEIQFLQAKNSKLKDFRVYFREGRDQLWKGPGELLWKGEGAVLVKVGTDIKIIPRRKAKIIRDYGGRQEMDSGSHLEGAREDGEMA

Going from COc1ccc(C(=O)NC(=S)Nc2ccc3nn(-c4ccc(C)c(Cl)c4)nc3c2)cc1[N+](=O)[O-] to COc1ccc(-c2c(C#N)c(N)nc(SCC(=O)c3ccc(O)c(O)c3)c2C#N)cc1, the IC50 falls from 4300 nM to 700 nM (6.1-fold). The second is the more potent here.

Going from Cc1ccc(S(=O)(=O)/N=C2\C=C(Sc3ncn[nH]3)C(=O)c3ccccc32)cc1 to O=C1C(Cl)=C/C(=N\S(=O)(=O)c2ccccc2)C(Cl)=C1Cl, the IC50 falls from 2000 nM to 900 nM (2.2-fold).

First: Cc1ccc(-c2c(C#N)c(SCC(=O)c3ccc(O)c(O)c3)nc3c2CCCC3)o1
Second: O=C(O)C1CCCCC1c1c2ccc(=O)c(O)c-2oc2c(O)c(O)ccc12 (stereo unspecified)
The IC50 of the first is 2.5-fold higher: 1500 nM for the first, 600 nM for the second. The second is the more potent here.

COc1ccc(N2C(=O)/C(=C/c3ccc(I)o3)C(=O)NC2=S)cc1 and O=C1NC(=S)N(c2ccc(Cl)cc2)C(=O)/C1=C/c1ccc(Br)o1 are within 1.5-fold of each other in IC50: 1300 nM for the first, 1700 nM for the second.

First: CC1=c2c(oc3cc(O)c(Nc4c(C)cc(O)cc4O)c(C)c23)=CC(=O)C1=Nc1c(C)cc(O)cc1O
Second: O=c1c(O)c(-c2cc(O)c(O)c(O)c2)oc2cc(O)cc(O)c12
The IC50 of the first is 1.5-fold lower: 2000 nM for the first, 3000 nM for the second.

Going from O=c1c(O)c(-c2ccc(O)c(O)c2)oc2cc(O)cc(O)c12 to O=C1C=CC2=C3c4cc(O)c(O)cc4CC3(O)COC2=C1O (stereo unspecified), the IC50 falls from 9000 nM to 1700 nM (5.3-fold). The second is the more potent here.

O=c1[nH]c2[nH]c(=S)[nH]c(=S)c2[nH]1 and O=C1NC(=S)N(c2ccccc2F)C(=O)/C1=C/c1ccc(I)o1 are within 1.5-fold of each other in IC50: 4000 nM for the first, 4900 nM for the second.

Going from Cc1cc(-c2ccc(C=C3C(=O)NC(=S)NC3=O)o2)c([N+](=O)[O-])cc1C to Cc1sc2nc(-c3ccc([N+](=O)[O-])cc3)[nH]c(=O)c2c1C, the IC50 falls from 7000 nM to 640 nM (11-fold).

Going from O=C1NN(c2ccc(I)cc2)C(=O)/C1=C\c1ccc(O)c(O)c1 to O=C1/C(=C/c2ccc(O)c(O)c2)SC(=S)N1C1CCCCC1, the IC50 rises from 4100 nM to 9100 nM (2.2-fold).

First: C=C(C)[C@@H]1CCc2c(O)c(O)c(=O)cc(C)c2C1
Second: C=C1C(=O)O[C@@H]2/C=C(\C)CC/C=C(\C(=O)O)CC/C=C(\C)CC[C@H]12
The IC50 of the first is 3.2-fold lower: 1700 nM for the first, 5500 nM for the second. The first is the more potent here.

O=C(Oc1ccccc1)Oc1c(Cl)cc2oc(=O)sc2c1Cl and O=C1NC(=S)S/C1=C/c1cccc(OCc2ccc(Cl)c(Cl)c2)c1 are within 1.5-fold of each other in IC50: 6300 nM for the first, 7300 nM for the second.

Compared with COC(=O)c1c(N)sc(C(=O)Nc2ccc(OC)cc2)c1C, CCOc1cccc(N2C(=O)/C(=C/c3cn(CC(=O)OC)c4ccccc34)C(=O)NC2=S)c1 is 1.5-fold lower in IC50: 4300 nM for the first, 2800 nM for the second. The second is the more potent here.

Compared with Oc1ccc(/C=N/Nc2nncc(-c3ccccc3)n2)c(O)c1O, O=C(Cc1ccccc1Cl)c1ccc(O)c(O)c1O is 1.8-fold higher in IC50: 1100 nM for the first, 2000 nM for the second. The first is the more potent here.

Compared with CCc1c(O)c2c(c(O)c1C(C)=O)C(=O)c1c(cc(O)c(C(=O)O)c1C(=O)O)C2=O, O=[N+]([O-])c1ccc2c(N=Nc3ccc4ccccc4c3O)c(O)cc(S(=O)(=O)O)c2c1 is 1.6-fold lower in IC50: 3500 nM for the first, 2200 nM for the second.

Nc1cc(S(N)(=O)=O)ccc1SSc1ccc(S(N)(=O)=O)cc1N and O=C1C=CC(=O)c2c(O)cccc21 are within 1.5-fold of each other in IC50: 2500 nM for the first, 3100 nM for the second.

CC(C)=CCC1=C(O)[C@@](O)(CC=C(C)C)C(=O)C(C(=O)CC(C)C)=C1O and O=[N+]([O-])c1cc(Cc2cc([N+](=O)[O-])c3cccnc3c2O)c(O)c2ncccc12 are the same in IC50: 2800 nM for the first, 2800 nM for the second.

In the case of CN(C)CN1CSC(=S)N(CN(C)C)C1, the IC50 is reported as 2800 nM.

In the case of N#Cc1c(NC(=O)C(F)(F)F)sc2c3c(=O)c4ccccc4c(=O)c=3oc3ccccc3c12, the IC50 is reported as “inactive”.
For CCC(=O)Nc1sc2c(c1C(=O)Nc1ccc(OC)cc1)CCCCC2, the IC50 was “inactive”.
For CC(C)c1cccc(O)c(=O)c1, the IC50 was > 100000 nM (inactive).
C=C(CCC(C(=O)O)C1CCC2(C)C3=C(CCC12C)C1(C)CCC(O)C(C)(C)C1CC3)C(C)C (stereo unspecified) was tested, and the IC50 was “inactive”.
With CCCCCCCCCCCCCCCC(=O)OCC1OC(n2ccc(N)nc2=O)C(O)C1O (stereo unspecified) the IC50 was “inactive”.
With CCOc1ccc(NC(=O)c2c(NC(=O)c3ccccc3)sc3c2CCCCC3)cc1 the IC50 was “inactive”.
For C=CCN1C(=O)/C(=C\c2ccc([N+](=O)[O-])o2)C(=O)NC1=S, the IC50 was “inactive”.
In the case of CCCc1cc(=O)oc2c3c(c4c(c12)OC(C)(C)C=C4)O[C@@H](C)[C@H](C)[C@@H]3F, the IC50 is reported as “inactive”.
